Experimental data published in PubChem BioAssay AID248 (DTP/NCI, 2004).
Values joined by “and” are separate entries in the source; they are usually repeats but may differ in a detail not shown here. Equal entries are not always repeated. Toxic doses and inconclusive results are not listed. No stated cut-off is given here; in the data, active means T/C of 150% or more; inactive means T/C below 125%.

Test system: L1210 leukemia ip in BDF1 mice, survival T/C
Test: NCI In Vivo Anticancer Drug Screen. Data for tumor model L1210 Leukemia (intraperitoneal) in B6D2F1 (BDF1) mice
Conditions: endpoint: mean survival time, higher = longer survival
How it was run: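 Tumor was transplanted into mice, which were then dosed with test compound or vehicle alone. Survival was recorded for each group, and the treated figure was expressed relative to the control figure.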

[1] = dose: 100.0 mg/kg/injection, schedule: Q04DX002 (ip), vehicle: saline with Tween-80
[2] = dose: 200.0 mg/kg/injection, schedule: Q04DX002 (ip), vehicle: saline with Tween-80
[3] = dose: 75.0 mg/kg/injection, schedule: Q01DX001 (ip), vehicle: saline
[4] = dose: 100.0 mg/kg/injection, schedule: Q01DX001 (ip), vehicle: Klucel (hydroxypropylcellulose) (HPC)
[5] = dose: 200.0 mg/kg/injection, schedule: Q01DX001 (ip), vehicle: Klucel (hydroxypropylcellulose) (HPC)
[6] = dose: 100.0 mg/kg/injection, schedule: Q01DX009 (ip), vehicle: Klucel (hydroxypropylcellulose) (HPC)
[7] = dose: 200.0 mg/kg/injection, schedule: Q01DX009 (ip), vehicle: Klucel (hydroxypropylcellulose) (HPC)
[8] = dose: 400.0 mg/kg/injection, schedule: Q01DX009 (ip), vehicle: Klucel (hydroxypropylcellulose) (HPC)
[9] = dose: 100.0 mg/kg/injection, schedule: Q01DX001 (ip), vehicle: saline with Tween-80
[10] = dose: 25.0 mg/kg/injection, schedule: Q04DX003 (ip), vehicle: saline
[11] = dose: 50.0 mg/kg/injection, schedule: Q01DX001 (ip), vehicle: saline
[12] = dose: 50.0 mg/kg/injection, schedule: Q04DX003 (ip), vehicle: saline
[13] = dose: 100.0 mg/kg/injection, schedule: Q01DX001 (ip), vehicle: saline
[14] = dose: 100.0 mg/kg/injection, schedule: Q04DX003 (ip), vehicle: saline
[15] = dose: 100.0 mg/kg/injection, schedule: Q04DX002 (ip), vehicle: Klucel (hydroxypropylcellulose) (HPC)
[16] = dose: 200.0 mg/kg/injection, schedule: Q04DX002 (ip), vehicle: Klucel (hydroxypropylcellulose) (HPC)
[17] = dose: 400.0 mg/kg/injection, schedule: Q04DX002 (ip), vehicle: Klucel (hydroxypropylcellulose) (HPC)

Measured: T/C

O=C1C=CC(=O)c2c1ccc1c2[nH]c2ccccc21
inactive: [1] 113 % of control | [2] 90 % of control

CC1(C[N+](=O)[O-])CCCC(=O)C1 (stereo not given)
inactive: [3] 98 % of control

NC(=O)C(NC(=O)c1ccccc1)Sc1ccccc1 (stereo not given)
inactive: dose: 50.0 mg/kg/injection, schedule: Q01DX001 (ip), vehicle: Klucel (hydroxypropylcellulose) (HPC) 100 % of control | [4] 100 % of control | [5] 96 % of control

NC(=O)Nc1ncn[nH]1
inactive: [1] 95 % of control | [2] 95 % of control | dose: 400.0 mg/kg/injection, schedule: Q04DX002 (ip), vehicle: saline with Tween-80 95 % of control

COc1ccc(/C=N/NC(=O)/C=C/c2ccccc2)c(OC)c1
inactive: [6] 97 % of control | [7] 98 % of control | [8] 92 % of control

CCCCCCCCCC(C)CC1CCCCC1 (stereo not given)
inactive: [9] 96 % of control | dose: 200.0 mg/kg/injection, schedule: Q01DX001 (ip), vehicle: saline with Tween-80 96 % of control

CS(=O)(=O)OCCCCCOS(C)(=O)=O
inactive: dose: 5.0 mg/kg/injection, schedule: Q01DX001 (ip), vehicle: carboxymethylcellulose (CMC) 97 % of control | dose: 6.0 mg/kg/injection, schedule: Q01DX015 (ip), vehicle: saline 101 % of control | dose: 10.0 mg/kg/injection, schedule: Q01DX001 (ip), vehicle: carboxymethylcellulose (CMC) 100 % of control | dose: 12.0 mg/kg/injection, schedule: Q01DX015 (ip), vehicle: saline 110 % of control | dose: 20.0 mg/kg/injection, schedule: Q01DX001 (ip), vehicle: carboxymethylcellulose (CMC) 100 % of control | dose: 40.0 mg/kg/injection, schedule: Q01DX001 (ip), vehicle: carboxymethylcellulose (CMC) 101 % of control | dose: 50.0 mg/kg/injection, schedule: Q01DX015 (ip), vehicle: saline 101 % of control

CC(C)=CCN(CC=C(C)C)CCC(C#N)(c1cccc2ccccc12)C(C)C (stereo not given)
inactive: dose: 25.0 mg/kg/injection, schedule: Q01DX009 (ip), vehicle: Klucel (hydroxypropylcellulose) (HPC) 101 % of control | [6] 93 % of control

C/C(=N\N=C(N)N)c1ccc(N2CCN(c3ccc(/C(C)=N/N=C(N)N)cc3)CC2)cc1
inactive: dose: 100.0 mg/kg/injection, schedule: Q01DX001 (ip), vehicle: carboxymethylcellulose (CMC) 94 % of control | dose: 200.0 mg/kg/injection, schedule: Q01DX001 (ip), vehicle: carboxymethylcellulose (CMC) 97 % of control | dose: 400.0 mg/kg/injection, schedule: Q01DX001 (ip), vehicle: carboxymethylcellulose (CMC) 100 % of control

O=C(Nc1ccc(Cl)c(Cl)c1)c1ccco1
inactive: dose: 12.5 mg/kg/injection, schedule: Q01DX009 (ip), vehicle: saline with Tween-80 92 % of control and 93 % of control | dose: 25.0 mg/kg/injection, schedule: Q01DX001 (ip), vehicle: saline with Tween-80 97 % of control | dose: 25.0 mg/kg/injection, schedule: Q04DX002 (ip), vehicle: saline with Tween-80 116 % of control and 91 % of control | dose: 25.0 mg/kg/injection, schedule: Q04DX003 (ip), vehicle: saline with Tween-80 96 % of control | dose: 50.0 mg/kg/injection, schedule: Q01DX001 (ip), vehicle: saline with Tween-80 103 % of control | dose: 50.0 mg/kg/injection, schedule: Q04DX002 (ip), vehicle: saline with Tween-80 116 % of control and 91 % of control | dose: 50.0 mg/kg/injection, schedule: Q04DX003 (ip), vehicle: saline with Tween-80 93 % of control | [9] 109 % of control | dose: 100.0 mg/kg/injection, schedule: Q01DX009 (ip), vehicle: saline with Tween-80 93 % of control | dose: 100.0 mg/kg/injection, schedule: Q04DX003 (ip), vehicle: saline with Tween-80 95 % of control

CCC1(C)N=C(N)N=C(N)N1c1ccc(Cl)c(Cl)c1 (stereo not given)
inactive: dose: 37.5 mg/kg/injection, schedule: Q04DX003 (ip), vehicle: saline 111 % of control | [3] 103 % of control | dose: 75.0 mg/kg/injection, schedule: Q04DX003 (ip), vehicle: saline 111 % of control | dose: 150.0 mg/kg/injection, schedule: Q01DX001 (ip), vehicle: saline 101 % of control | dose: 150.0 mg/kg/injection, schedule: Q04DX003 (ip), vehicle: saline 105 % of control

COc1cc2c(cc1OC)C(C)=NCC2
inactive: dose: 12.0 mg/kg/injection, schedule: Q01DX009 (ip), vehicle: saline 103 % of control | dose: 25.0 mg/kg/injection, schedule: Q01DX009 (ip), vehicle: saline 94 % of control | [10] 105 % of control | [11] 114 % of control | dose: 50.0 mg/kg/injection, schedule: Q01DX009 (ip), vehicle: saline 110 % of control | [12] 105 % of control | [13] 104 % of control | [14] 102 % of control

CC(=O)Nc1ccc(NC(=O)Nc2ccc(F)cc2)cc1
inactive: [15] 108 % of control | [16] 118 % of control | [17] 105 % of control

O=C(NC(=S)Nc1cccc(Cl)c1)c1cccc(Br)c1
inactive: [4] 86 % of control | [6] 98 % of control and 90 % of control | [15] 91 % of control | dose: 100.0 mg/kg/injection, schedule: Q04DX003 (ip), vehicle: Klucel (hydroxypropylcellulose) (HPC) 108 % of control | [5] 117 % of control | [7] 98 % of control and 90 % of control | [16] 93 % of control and 91 % of control | dose: 200.0 mg/kg/injection, schedule: Q04DX003 (ip), vehicle: Klucel (hydroxypropylcellulose) (HPC) 107 % of control | dose: 400.0 mg/kg/injection, schedule: Q01DX001 (ip), vehicle: Klucel (hydroxypropylcellulose) (HPC) 86 % of control | [8] 87 % of control and 91 % of control | [17] 93 % of control and 91 % of control | dose: 400.0 mg/kg/injection, schedule: Q04DX003 (ip), vehicle: Klucel (hydroxypropylcellulose) (HPC) 96 % of control

Oc1c(Cl)cc(Cl)cc1C=Nc1ccc(Br)cn1
inactive: dose: 100.0 mg/kg/injection, schedule: Q01DX001 (ip), vehicle: other 95 % of control | dose: 200.0 mg/kg/injection, schedule: Q01DX001 (ip), vehicle: other 101 % of control | dose: 400.0 mg/kg/injection, schedule: Q01DX001 (ip), vehicle: other 95 % of control

CC(C)(C)C(=O)/C=C(\C=S(C)(C)=O)c1ccccc1
inactive: [10] 105 % of control | [12] 97 % of control | [14] 100 % of control

CCC(Br)(CC)C(=O)c1ccc(OCC(=O)O)c(Cl)c1Cl
inactive: [11] 104 % of control | [13] 96 % of control | dose: 200.0 mg/kg/injection, schedule: Q01DX001 (ip), vehicle: saline 102 % of control

Cc1[nH]c2cc(O)c(O)c(C)c2c1C
inactive: [13] 96 % of control

C[N+](C)(CCC#N)Cc1ccc(C[N+](C)(C)CCC#N)cc1
inactive: dose: 5.0 mg/kg/injection, schedule: Q01DX001 (ip), vehicle: saline 90 % of control | dose: 10.0 mg/kg/injection, schedule: Q01DX001 (ip), vehicle: saline 95 % of control | dose: 20.0 mg/kg/injection, schedule: Q01DX001 (ip), vehicle: saline 95 % of control

CCCCCCCC(=O)N(CCO)CCO
inactive: dose: 100.0 mg/kg/injection, schedule: Q04DX002 (ip), vehicle: other 96 % of control | dose: 200.0 mg/kg/injection, schedule: Q04DX002 (ip), vehicle: other 101 % of control | dose: 400.0 mg/kg/injection, schedule: Q04DX002 (ip), vehicle: other 96 % of control
